Results taken from patent US8058258B2, “Methods for cancer therapy and stem cell modulation” (Agency for Science, Technology and Research, priority 2006, dated 2011).

What was measured:
[1] = test system: CC33D cells; assay: Microscopy examination of cell death in primary colon epithelial cells; type: cell-based; details: normal primary colon epithelial CC33D cells compared to HCT116
From the text: To determine whether 3-deazaneplanocin preferentially induces apoptosis in cancer cells, the apoptosis induction between MCF-7 cells and the non-cancerous breast epithelial MCF10A cells was compared for various periods of time. […] In addition, normal primary colon epithelial CC33D cells, like MCF10A cells, were also resistant to 3-deazaneplanocin treatment compared to colorectal cancer HCT116 cell, as evaluated by microscopy examination (FIGS. 3G & 3H).

[2] = explored for antiviral treatment; cited from earlier work
[3] = test system: SW480 cells; assay: Cell death by PI staining and flow cytometry; type: cell-based; details: colorectal cancer SW480 cells, 5 μM
Method: (§1) FIG. 3A depicts the detection of cell death of a variety of cancer cells upon exposure to 3-deazaneplanocin (DZNep) compared to untreated controls cells (DMSO=dimethyl sulfoxide). Breast cancer MCF-7 and MB-468 cells, colorectal HCT116, RKO and SW480 cells were treated with 5 μm 3-deazaneplanocin for 48 and 72 h, and cell death was detected by means of propodium iodide (PI) staining and flow cytometry analysis. Shown is the average of three independent experiments.
(§2) Cell lines used in these examples were purchased from the American Type Culture Collection (Manassas, Va.). Cells were maintained in DMEM supplemented with 10% fetal bovine serum with glutamine, penicillin, and streptomycin. For drug treatment, cells were seeded the day before the drug treatment. Cells were treated with 5 μM 3-Deazaneplanocin A or 2 μM 5-aza-2′-deoxycytidine (5-AzaC; Sigma) for 72 hours and trichostatin A (TSA; Sigma) at 100 nM for 24 hours. For co-treatment of cells with 5-AzaC and TSA, 5-Aza was added for 48 hours and followed by TSA for 24 hours.
(§3) Cells were trypsinised and washed with PBS and fixed in 70% ethanol and processed for propidium iodide staining and FACS analysis. For the caspase 3 activity assay and mitochondrial membrane potential detection, cells were stained with anti-active caspase 3 and JC-1, respectively, according to the manufacturer's instructions (BD Bioscience).
(§4) It was observed that 3-deazaneplanocin at 5 μM could induce 25% cell death at 48 hours and 45% of cell death at 72 hours, as determined by propodium iodide (PI) staining and flow cytometry analysis (FIG. 3A).

[4] = test system: RKO cells; assay: Cell death by PI staining and flow cytometry; type: cell-based; details: colorectal cancer RKO cells, 5 μM
Method: as §1, §2, §3, §4

[5] = test system: HCT116 cells; assay: Cell death by PI staining and flow cytometry; type: cell-based; details: colorectal cancer HCT116 cells, 5 μM
Method: as §1, §2, §3, §4

[6] = test system: trimethylation of histone 3 at lysine 27 (H3-K27); assay: Western blot of histone H3 lysine 27 trimethylation; type: cell-based, human; details: HCT116 or MCF-7 cells, 5 μM, 48 and 72 hours
Method: Cell lines used in these examples were purchased from the American Type Culture Collection (Manassas, Va.). Cells were maintained in DMEM supplemented with 10% fetal bovine serum with glutamine, penicillin, and streptomycin. For drug treatment, cells were seeded the day before the drug treatment. Cells were treated with 5 μM 3-Deazaneplanocin A or 2 μM 5-aza-2'-deoxycytidine (5-AzaC; Sigma) for 72 hours and trichostatin A (TSA; Sigma) at 100 nM for 24 hours. For co-treatment of cells with 5-AzaC and TSA, 5-Aza was added for 48 hours and followed by TSA for 24 hours. Cell pellets were first lysed in RadioImmuno Precipitation Assay (RIPA) buffer, consisting of an aqueous solution of 25 mM Tris-HCl pH 7.6, 150 mM NaCl, 1% Nonidet-P 40 (NP-40), 1% sodium deoxycholate and 0.1% sodium dodecylsulfate (SDS), before further sonicated using a tissue homogeniser to release all the proteins. Equal amounts of protein were separated on SDS-polyacrylamide gels and transferred to polyvinylidene difluoride (PVDF) membranes. The blots were probed with antibodies against: EED (07-368), SUZ12 (07-379), SUV39H1 (07-550), BMI1 (05-637), tri-methylated H3-K27 (07-449), tri-methylated H3-K9 (07-442) and Acetyl-Histone H3 (06-599), and were purchased from Upstate. EZH2 (AC22) and Histone H3 (3H1) were from Cell Signaling. […]

[7] = test system: SK-BR-3 cells; assay: Apoptotic response time course by FACS analysis; type: cell-based, human; details: SK-BR-3, 5 μM, time course to 120 hours
Method: FIG. 6A depicts an analysis of the breast cancer cell lines MCF-7, MB-468, SK-BR-3, MB-231, T47D and BT549 for an apoptotic effect of 5 μM 3-deazaneplanocin over a time frame of 120 hours. Cell death was measured by FACS analysis. Data presented are the average of three independent experiments.
as §3
(§5) To extend the observation seen in MCF-7 cells, additional breast cancer cell lines were screened, including MB-468, SK-BR-3, MB-231, T47D and BT549. […] To identify the PRC2 target genes associated with the cellular sensitivity to 3-deazaneplanocin, the array analysis was performed in these breast cancer cell lines before and after 3-deazaneplanocin treatment and the expression of the 47 identified PRC2 targets profiled. It was reasoned that some the PRC2 target genes might be differentially expressed between the sensitive and resistant cell lines, which might confer the distinct sensitivity to 3-deazaneplanocin. […] Both the real time and conventional RT-PCR analysis of the 4 gene set confirmed the array data (FIGS. 6D & 6E). […]

[8] = test system: PRC2 target genes in MCF-7, MB-468, SK-BR-3, T47D, MCF10A, MB-231, BT549; assay: Array analysis of PRC2 targets in sensitive and resistant breast cancer cell lines; type: cell-based
Method: FIG. 6B depicts the results of array analysis in these breast cancer cell lines (MCF-7, MB-468, SK-BR-3 and T47D sensitive ? MCF10A, MB-231, BT549 resistant) before and after 3-deazaneplanocin treatment. […] Genes marked in bold are highly expressed in resistant cell lines relative to sensitive cell lines.
Total RNA was isolated from cell lines using Trizol (Invitrogen) and was converted to cDNA using an RNA Amplification kit (Ambion). The microarray hybridisation was performed using the Illumina Gene Expression BeadChip (Illumina) and data analysis was performed using GeneSpring software from Agilent Technologies. Gene expression of normal and primary breast tumor samples was performed using Affymetrix U133A GeneChips (Affymetrix, Santa Clara, Calif.) following the manufacturer's instructions. Gene expression data from individual arrays were normalized by median centering and average linkage hierarchical clustering was done using Cluster and Treeview softwares (http://rana.lbl.gov/EisenSoftware.htm). Quantitative real-time PCR was performed on a PRISM 7900 sequenced detector (Applied Biosystems) using TaqMan probes (Applied Biosystems). Samples were normalized to the levels of 18S ribosomal RNA.
as §5

In the case of `Nc1nccc2c1ncn2C1C=C(CO)C(O)C1O` (stereo not shown) [3-deazaneplanocin, 5-(4-amino-1H-imidazo[4,5-c]pyridin-1-yl)-3-(hydroxymethyl)-3-cyclopentene-1,2-diol], the “sensitivity to treatment, microscopy examination” value [1] is listed as “resistant”, the toxicity in vivo [2] is listed as “minimal toxicity” and the cell death [3] is listed as “obvious cell death”. For the same compound, the cell death [4] was “obvious cell death”, the cell death [5] was “obvious cell death” and the “trimethylation of histone 3 at lysine 27 (H3-K27)” value [6] was “strongly reduced”. For the same compound, the “sensitivity to 3-deazaneplanocin-induced cell death” value [7] was “highly susceptible”, the “induction of FBXO32, LAMB3, PLAU, and PPP1R15A” value ([8]; four sensitive cell lines (MCF-7, MB-468, SK-BR-3, T47D)) was “commonly induced” and the “induction of the same PRC2 target genes in resistant cell lines” value ([8]; resistant cell lines (MCF10A, MB-231, BT549)) was “did not undergo marked further induction”. For the same compound, the “induction of TGFBI, IGFBP3, TNS3 and KRT17” value ([8]; sensitive cell lines (MCF-7, MB-468, SK-BR-3, T47D)) was “induced in 3 out 4 sensitive cell lines”.
